Results reported in US20230031406A1, “COMPOUNDS AND COMPOSITIONS FOR TREATING CONDITIONS ASSOCIATED WITH NLRP ACTIVITY” (Novartis AG, priority 2018, published 2023).
Read-outs that look alike come from different tables or passages of the source.

System: PMA-differentiated THP-1 cells
Test: IL-1β production in PMA-differentiated THP-1 cells stimulated with gramicidin (hTHP-1 assay containing 2% fetal bovine serum; Procedures 1 and 2)
Type: cell-based, human
Conditions: 2% fetal bovine serum
In short: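 IL-1β release from PMA-differentiated THP-1 macrophage-like cells was triggered by 5 μM gramicidin for 2 h after 1 h compound exposure, then measured by HTRF.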

[1] = Table B2, class symbols, read-out: hTHP-1 IC50
[2] = Homo sapiens, THP-1, Table B2, class symbols, read-out: hTHP-1 IC50
[3] = Homo sapiens, THP-1, Table B1, numeric bounds, read-out: Average IC50 of compounds in hTHP-1 assay: hTHP-1 IC50
[4] = Table B1, class symbols, read-out: Average IC50 of compounds in hTHP-1 assay: hTHP-1 IC50
[5] = Homo sapiens, THP-1, Table B1, class symbols, read-out: Average IC50 of compounds in hTHP-1 assay: hTHP-1 IC50
[6] = Homo sapiens, THP-1, Table B4, class symbols, read-out: hTHP-1 IC50
[7] = Homo sapiens, THP-1, Table B2, numeric bounds, read-out: hTHP-1 IC50

CC(C)(O)c1ncc(S(N)(=O)=NC(=O)Nc2cc(C(F)F)nc3c2CCC3)s1 (stereo not shown) [Example 614, N′-((2-(difluoromethyl)-6,7-dihydro-5H-cyclopenta[b]pyridin-4-yl)carbamoyl)-2-(2-hydroxypropan-2-yl)thiazole-5-sulfonimidamide]
IC50 (Homo sapiens, THP-1, Table B3, hTHP-1 assay, numeric values, read-out: IC50): > 30 µM

CC1(C)CCc2c1nc1c(c2NC(=O)N=S(N)(=O)c2nn(C(F)F)cc2F)CCC1 (single isomer, unassigned) [Example 721, (R) or (S)-1-(difluoromethyl)-N′-((3,3-dimethyl-1,2,3,5,6,7-hexahydrodicyclopenta[b,e]pyridin-8-yl)carbamoyl)-4-fluoro-1H-pyrazole-3-sulfonimidamide]
IC50 (Table B3, hTHP-1 assay, class symbols, read-out: IC50): 0.04 to 0.2 µM

CC(C)(O)c1csc(S(N)(=O)=NC(=O)Nc2c3c(nc(C4CC4)c2C2CC2)CCC3)c1 (single isomer, unassigned) [Compound 670b, (R) or (S)-N′-((2,3-dicyclopropyl-6,7-dihydro-5H-cyclopenta[b]pyridin-4-yl)carbamoyl)-4-(2-hydroxypropan-2-yl)thiophene-2-sulfonimidamide]
IC50 [1]: 0.04 to 0.2 µM

CCn1ccc([S@@](N)(=O)=NC(=O)Nc2c(C)c(C(F)(F)F)nc3c2CCC3)n1 [Compound 731a]
IC50 [2]: 5 to 30 µM

CC(C)(O)c1nc(CCO)c(S(N)(=O)=NC(=O)Nc2c3c(nc4c2CCC4)CCC3)s1 (single isomer, unassigned) [Compound 118b, (S) or (R)-N′-((1,2,3,5,6,7-hexahydrodicyclo-penta[b,e]pyridin-8-yl)carbamoyl)-4-(2-hydroxyethyl)-2-(2-hydroxypropan-2-yl)thiazole-5-sulfonimidamide]
IC50 [3]: > 24 µM

Cc1sc(S(N)(=O)=NC(=O)Nc2c3c(nc4c2CCC4C)CCC3)nc1C(C)(C)O (single isomer, unassigned) [Compound 104b, (S,R/S) or (R,R/S)-4-(2-hydroxypropan-2-yl)-5-methyl-N′-((3-methyl-1,2,3,5,6,7-hexahydrodicyclo-penta[b,e]pyridin-8-yl)carbamoyl)thiazole-2-sulfonimidamide]
IC50 [4]: 5 to 30 µM

CC(C)(O)c1ccc(S(N)(=O)=NC(=O)Nc2c3c(nc4c2CCC4)CCC3)cn1 (single isomer, unassigned) [Compound 156b, (R) or (S)-N′-((1,2,3,5,6,7-hexahydrodicyclo-penta[b,e]pyridin-8-yl)carbamoyl)-6-(2-hydroxypropan-2-yl)pyridine-3-sulfonimidamide]
IC50 [5]: 1 to 5 µM

C[C@@H]1CCc2c1nc1c(c2NC(=O)N=S(N)(=O)c2nn(-c3ccccc3)cc2F)CCC1 (single isomer, unassigned) [Example 791, (R) or (S)-4-fluoro-N′-(((R)-3-methyl-1,2,3,5,6,7-hexahydrodicyclopenta[b,e]pyridin-8-yl)carbamoyl)-1-phenyl-1H-pyrazole-3-sulfonimidamide]
IC50 [6]: 0.2 to 1 µM

CC1CCc2c1nc1c(c2NC(=O)N=S(N)(=O)c2cc(C(C)(C)O)cs2)CCC1 (single isomer, unassigned) [Compound 141b, (R,R/S) or (S,R/S)-4-(2-hydroxypropan-2-yl)-N′-((3-methyl-1,2,3,5,6,7-hexahydro-dicyclopenta[b,e]pyridin-8-yl)carbamoyl)thiophene-2-sulfonimidamide]
IC50 [4]: 0.04 to 0.2 µM

CC(C)(O)c1ccc(S(N)(=O)=NC(=O)Nc2c3c(nc4c2CCC4)CCC3)s1 (stereo not shown) [Compound 149, N′-((1,2,3,5,6,7-hexahydrodicyclopenta[b,e]pyridin-8-yl)carbamoyl)-5-(2-hydroxypropan-2-yl)thiophene-2-sulfonimidamide]
IC50 [5]: 0.2 to 1 µM

Cc1nc2c(c(NC(=O)N=S(N)(=O)c3cc(C(C)(C)O)cs3)c1C(C)C)CCC2 (single isomer, unassigned) [Compound 622a, (S) or (R)-4-(2-Hydroxypropan-2-yl)-N′-((3-isopropyl-2-methyl-6,7-dihydro-5H-cyclopenta[b]pyridin-4-yl)carbamoyl) thiophene-2-sulfonimidamide]
IC50 [1]: 5 to 30 µM

COC(C)(C)c1nc(CO)c(S(N)(=O)=NC(=O)Nc2c3c(nc4c2CCC4(C)C)CCC3)s1 (stereo not shown) [Compound 648, N′-((3,3-dimethyl-1,2,3,5,6,7-hexahydrodicyclopenta[b,e]pyridin-8-yl)carbamoyl)-4-(hydroxymethyl)-2-(2-methoxypropan-2-yl)thiazole-5-sulfonimidamide]
IC50 [2]: 1 to 5 µM

CC(C)n1ccc(S(N)(=O)=NC(=O)Nc2c3c(nc4c2CCC42CC2)CCC3)n1 (single isomer, unassigned) [Compound 172a, (S) or (R)-1-Isopropyl-N′-((1′,5′,6′,7′-tetrahydro-2′H-spiro[cyclopropane-1,3′-dicyclopenta[b,e]pyridin]-8′-yl)carbamoyl)-1H-pyrazole-3-sulfonimidamide]
IC50 [4]: 5 to 30 µM

CC(C)(O)c1ncc([S@](N)(=O)=NC(=O)Nc2c3c(nc(CC(F)(F)F)c2C2CC2)CCC3)s1 [Example 578, (R)-N′-((3-cyclopropyl-2-(2,2,2-trifluoroethyl)-6,7-dihydro-5H-cyclopenta[b]pyridin-4-yl)carbamoyl)-2-(2-hydroxypropan-2-yl)thiazole-5-sulfonimidamide]
IC50 (Homo sapiens, THP-1, Table B3, hTHP-1 assay, class symbols, read-out: IC50): 1 to 5 µM

CC1CCc2c1nc1c(c2NC(=O)N=S(N)(=O)c2ccc(CN(C)C)cc2)CCC1 (single isomer, unassigned) [Compound 134aa, (S,S) or (S,R)-4-((di-methylamino)methyl)-N′-((3-methyl-1,2,3,5,6,7-hexahydrodicyclo-penta[b,e]pyridin-8-yl)carbamoyl)benzene-sulfonimidamide]
IC50 [3]: > 30 µM

Cc1c(C(F)(F)F)nc(C(F)(F)F)c(C)c1NC(=O)N=S(N)(=O)c1cc(C(C)(C)O)cs1 (stereo not shown) [Example 738, N′-((3,5-dimethyl-2,6-bis(trifluoromethyl)pyridin-4-yl)carbamoyl)-4-(2-hydroxypropan-2-yl)thiophene-2-sulfonimidamide]
IC50 [6]: 1 to 5 µM

CCn1cc(F)c(S(N)(=O)=NC(=O)Nc2c3c(nc(C(F)(F)F)c2-c2cccc(F)c2)CCC3)n1 (single isomer, unassigned) [Example 781, (R) or (S)-1-ethyl-4-fluoro-N′-((3-(3-fluorophenyl)-2-(trifluoromethyl)-6,7-dihydro-5H-cyclopenta[b]pyridin-4-yl)carbamoyl)-1H-pyrazole-3-sulfonimidamide]
IC50 (Table B4, class symbols, read-out: hTHP-1 IC50): 0.008 to 0.04 µM

CC1(C)Cc2nc3c(c(NC(=O)N=S(N)(=O)c4cnc(C(C)(C)O)s4)c2C1)CCC3 (single isomer, unassigned) [Compound 147a, (S) or (R)-N′-((2,2-dimethyl-1,2,3,5,6,7-hexahydrodicyclo-penta[b,e]pyridin-8-yl)carbamoyl)-2-(2-hydroxypropan-2-yl)thiazole-5-sulfonimidamide]
IC50 [3]: > 30 µM

C[C@@H]1CCc2c1nc1c(c2NC(=O)N=S(N)(=O)c2nn(-c3ccccc3)cc2F)CCC1 (stereo partly drawn) [Example 748, 4-Fluoro-N′-(((R)-3-methyl-1,2,3,5,6,7-hexahydrodicyclopenta [b, e]pyridin-8-yl)carbamoyl)-1-phenyl-1H-pyrazole-3-sulfonimidamide]
IC50 [6]: 0.2 to 1 µM

Cc1nc2c(c(NC(=O)N=S(N)(=O)c3cnc(C(C)(C)O)s3)c1C(C)C)CCC2 (single isomer, unassigned) [Compound 116a, (S) or (R)-2-(2-hydroxypropan-2-yl)-N′-((3-isopropyl-2-methyl-6,7-dihydro-5H-cyclopenta[b]pyridin-4-yl)carbamoyl)thiazole-5-sulfonimidamide]
IC50 [3]: > 30 µM

Cc1c(C(F)(F)F)nc2c(c1NC(=O)N=S(N)(=O)c1cnn(C(F)F)c1)CCC2 (stereo not shown) [Compound 617, 1-(Difluoromethyl)-N′-((3-methyl-2-(trifluoromethyl)-6,7-dihydro-5H-cyclopenta[b]pyridin-4-yl)carbamoyl)-1H-pyrazole-4-sulfonimidamide]
IC50 [2]: 5 to 30 µM

CC(C)(O)c1ccnc(S(N)(=O)=NC(=O)Nc2c3c(nc4c2CCC4(C)C)CCC3)c1 (single isomer, unassigned) [Compound 620a, (S) or (R)-N′-((3,3-dimethyl-1,2,3,5,6,7-hexahydrodicyclopenta [b,e]pyridin-8-yl)carbamoyl)-4-(2-hydroxypropan-2-yl)pyridine-2-sulfonimidamide]
IC50 [7]: > 30 µM

Cc1nc2c(c(NC(=O)N=S(N)(=O)c3ncc(C(C)(C)O)s3)c1C1CC1)CCC2 (single isomer, unassigned) [Compound 618a, (S) or (R)-N′-((3-cyclopropyl-2-methyl-6,7-dihydro-5H-cyclopenta[b]pyridin-4-yl)carbamoyl)-5-(2-hydroxypropan-2-yl)thiazole-2-sulfonimidamide]
IC50 [7]: > 30 µM

Cc1c(C(F)F)nc2c(c1NC(=O)N=S(N)(=O)c1cnc(C(C)(C)O)s1)CCC2 (stereo not shown) [Compound 647, N′-((2-(difluoromethyl)-3-methyl-6,7-dihydro-5H-cyclopenta[b]pyridin-4-yl)carbamoyl)-2-(2-hydroxypropan-2-yl)thiazole-5-sulfonimidamide]
IC50 [2]: 1 to 5 µM

CC1(C)CCc2c1nc1c(c2NC(=O)N=S(N)(=O)c2cnc(C(O)(CO)CO)s2)CCC1 (stereo not shown) [Compound 734, N′-((3,3-dimethyl-1,2,3,5,6,7-hexahydrodicyclopenta[b,e]pyridin-8-yl)carbamoyl)-2-(1,2,3-trihydroxypropan-2-yl)thiazole-5-sulfonimidamide]
IC50 [2]: 0.2 to 1 µM
